Measured values from patent US4818770A, “Prevention of a plant disease by specific inhibition of fungal polyamine biosynthesis” (priority 1986, dated 1989).
Like-named read-outs stand apart in the source and are kept apart here.

What was measured:
arginase = molecular target: T1, arginase (Verticillium dahliae, UniProt G2WV09); assay: Arginase activity in mycelium extracts with DFMA as substrate; assay type: biochemical; conditions: mycelium of 12-day old cultures
T1 construct: urea release from arginine or DFMA
T1 sequence (G2WV09 1-327): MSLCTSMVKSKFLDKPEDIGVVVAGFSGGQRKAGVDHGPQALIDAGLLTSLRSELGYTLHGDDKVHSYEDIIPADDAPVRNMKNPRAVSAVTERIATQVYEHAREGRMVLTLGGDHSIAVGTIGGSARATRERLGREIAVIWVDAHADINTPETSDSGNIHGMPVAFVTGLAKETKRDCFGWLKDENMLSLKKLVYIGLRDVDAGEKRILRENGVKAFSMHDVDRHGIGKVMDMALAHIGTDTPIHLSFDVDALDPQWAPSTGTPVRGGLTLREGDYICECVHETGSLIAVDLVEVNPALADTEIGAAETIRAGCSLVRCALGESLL
Experimental: Ornithine decarboxylase and ADCase activity determinations were carried out on 12-day-old mycelium of the fungus cultured on liquid Czapek-Dox medium containing 1% glucose as the carbon source.
Ornithine decarboxylase and ADCase were assayed by the methods of Kaur-Sawhney et al. (4) using D,L-[1-14 C]ornithine and L-[U14 C]arginine as substrates for the respective enzymes. Arginase activity was determined by the methods of Schimke (9), using arginine and DFMA as substrates, and 1-phenyl-1,2-propanedione-2-oxime to detect the urea release by the enzyme. Controls for the arginase determinations were boiled mycelial extracts, and results were adjusted to compensate for readings obtained from substrate blanks. Protein determinations were by the […] method (1), using bovine serum albumin as a reference standard. Difluoromethylornithine and DFMA are products of Merrell-Dow, and are available from them. All other reagents were from Sigma Biochemicals. All experiments were replicated 3 times and repeated twice. Variaions within experiments were generally less than 5%.

[1] = test system: P. graminis f. sp. tritici; assay type: in vivo, Puccinia graminis f. sp. tritici

Structure (SMILES): N=C(N)NCCC[C@](N)(C(=O)O)C(F)F [DFMA, alpha-difluoromethylarginine]
- arginase activity with DFMA as substrate (arginase; isolate TS-1B): 7.1 pM urea/hr/mg protein
- arginase activity with DFMA as substrate (arginase; isolate TS-2B): 11.3 pM urea/hr/mg protein
- control of wheat stem rust ([1]; 0.01 to 1.0 mM): relatively ineffective
- % control ([1]; post-inoculation, 0.01 mM): 27%
- Uredia/plant ([1]; post-inoculation, 0.01 mM): 154 Uredia/plant
- % control ([1]; post-inoculation, 0.025 mM): 36%
- Uredia/plant ([1]; post-inoculation, 0.025 mM): 134 Uredia/plant
- % control ([1]; post-inoculation, 0.065 mM): 29%
- Uredia/plant ([1]; post-inoculation, 0.065 mM): 150 Uredia/plant
- % control ([1]; post-inoculation, 0.10 mM): 28%
- Uredia/plant ([1]; post-inoculation, 0.10 mM): 152 Uredia/plant
- % control ([1]; post-inoculation, 0.13 mM): 42%
- Uredia/plant ([1]; post-inoculation, 0.13 mM): 122 Uredia/plant
- % control ([1]; post-inoculation, 0.16 mM): 42%
- Uredia/plant ([1]; post-inoculation, 0.16 mM): 122 Uredia/plant
- % control ([1]; post-inoculation, 0.20 mM): 41%
- Uredia/plant ([1]; post-inoculation, 0.20 mM): 124 Uredia/plant
- % control ([1]; post-inoculation, 1.00 mM): 40%
- Uredia/plant ([1]; post-inoculation, 1.00 mM): 126 Uredia/plant
- % control ([1]; pre-inoculation, 0.01 mM): 9%
- Uredia/plant ([1]; pre-inoculation, 0.01 mM): 192 Uredia/plant
- % control ([1]; pre-inoculation, 0.025 mM): 20%
- Uredia/plant ([1]; pre-inoculation, 0.025 mM): 167 Uredia/plant
- % control ([1]; pre-inoculation, 0.065 mM): 20%
- Uredia/plant ([1]; pre-inoculation, 0.065 mM): 168 Uredia/plant
- % control ([1]; pre-inoculation, 0.10 mM): 21%
- Uredia/plant ([1]; pre-inoculation, 0.10 mM): 165 Uredia/plant
- % control ([1]; pre-inoculation, 0.13 mM): 8%
- Uredia/plant ([1]; pre-inoculation, 0.13 mM): 193 Uredia/plant
- % control ([1]; pre-inoculation, 0.16 mM): 11%
- Uredia/plant ([1]; pre-inoculation, 0.16 mM): 186 Uredia/plant
- % control ([1]; pre-inoculation, 0.20 mM): 18%
- Uredia/plant ([1]; pre-inoculation, 0.20 mM): 172 Uredia/plant
- % control ([1]; pre-inoculation, 1.00 mM): 30%
- Uredia/plant ([1]; pre-inoculation, 1.00 mM): 148 Uredia/plant
